Reference: patent US9695155B2, “Herbicidal substituted pyrimidinyloxy benzene compounds” (E. I. DU PONT DE NEMOURS AND COMPANY, priority 2013, dated 2017)

Legend:
large (Lg) crabgrass [1] = test: Test A preemergence; assay type: in vivo, Digitaria sanguinalis; settings: Digitaria sanguinalis, pre-emergence, 240 h
Outline: (§1)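 Visual injury scored 0–100 (100 = complete control) against untreated controls about 10 days after treatment in a greenhouse. Test chemicals, formulated with surfactant in non-phytotoxic solvent, were sprayed on soil preemergence or on 2-10 cm, one- to two-leaf plants postemergence.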

pigweed [2] = test: Test A preemergence; assay type: in vivo, Amaranthus retroflexus; settings: Amaranthus retroflexus, pre-emergence
Outline: as §1

large (Lg) crabgrass [3] = test: Test A postemergence; assay type: in vivo, Digitaria sanguinalis; settings: Digitaria sanguinalis, post-emergence, 240 h
Outline: as §1

giant foxtail [4] = test: Test A postemergence; assay type: in vivo, Setaria faberii; settings: Setaria faberi, post-emergence, 240 h
Outline: as §1

pigweed [5] = test: Test A postemergence; assay type: in vivo, Amaranthus retroflexus; settings: Amaranthus retroflexus, post-emergence
Outline: as §1

blackgrass = test: Test C preemergence; assay type: in vivo, Alopecurus myosuroides; settings: Alopecurus myosuroides, pre-emergence
Outline: (§2)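 Visual injury score versus untreated controls, 0 = no effect, 100 = complete control, taken 13 to 15 days after treatment in the greenhouse. Pre-emergence pots held loam/sand; post-emergence plants grew in sphagnum peat/vermiculite mix and were sprayed at the 1- to 4-leaf stage.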

giant foxtail [6] = test: Test C preemergence; assay type: in vivo, Setaria faberii; settings: Setaria faberi, pre-emergence
Outline: as §2

johnsongrass [7] = test: Test C preemergence; assay type: in vivo, Sorghum halepense; settings: Sorghum halepense, pre-emergence
Outline: as §2

ragweed = test: Test C preemergence; assay type: in vivo, Ambrosia elatior; settings: Ambrosia artemisiifolia, pre-emergence
Outline: as §2

corn = test: Test C postemergence; assay type: in vivo, Zea mays; settings: Zea mays, post-emergence
Outline: as §2

large (Lg) crabgrass [8] = test: Test C postemergence; assay type: in vivo, Digitaria sanguinalis; settings: Digitaria sanguinalis, post-emergence
Outline: as §2

johnsongrass [9] = test: Test C postemergence; assay type: in vivo, Sorghum halepense; settings: Sorghum halepense, post-emergence
Outline: as §2

oilseed rape = test: Test C postemergence; assay type: in vivo, Brassica napus; settings: Brassica napus, post-emergence
Outline: as §2

waterhemp = test: Test C postemergence; assay type: in vivo, Amaranthus rudis; settings: Amaranthus tuberculatus, post-emergence
Outline: as §2

velvetleaf = test: Test C postemergence; assay type: in vivo, Abutilon theophrasti; settings: Abutilon theophrasti, post-emergence
Outline: as §2

[10] = 125 g ai/ha, 0 to 100 scale where 0 is no effect and 100 is complete control, read-out: Plant response rating, Crabgrass, Large
[11] = 125 g ai/ha, 0 to 100 scale where 0 is no effect and 100 is complete control, read-out: Plant response rating, Pigweed

N#Cc1cccc(Oc2ncc(Cl)cn2)c1-n1cc(C(F)(F)F)cn1 [Compound 58, 3-[(5-chloro-2-pyrimidinyl)oxy]-2-[4-(trifluoromethyl)-1H-pyrazol-1-yl]benzonitrile]
70%: plant injury at 62 g/ha (oilseed rape; Postemergence, 62 g ai/ha, scale 0 to 100 (0 no effect, 100 complete control), read-out: Plant response rating, Oilseed Rape)
45%: plant injury at 250 g/ha (corn; 250 g ai/ha, postemergence, read-out: Plant response rating (0 to 100), Corn) | pest or weed control at 31 g/ha (velvetleaf; Postemergence, 31 g ai/ha, scale 0 to 100 (0 no effect, 100 complete control), 13 to 15 days, read-out: Plant response rating, Velvetleaf)
35%: pest or weed control at 125 g/ha (johnsongrass [9]; 125 g ai/ha, postemergence, read-out: Plant response rating (0 to 100), Johnsongrass)
50%: pest or weed control at 125 g/ha (large (Lg) crabgrass [8]; 125 g ai/ha, postemergence, read-out: Plant response rating (0 to 100), Crabgrass, Large) | pest or weed control at 62 g/ha (velvetleaf; Postemergence, 62 g ai/ha, scale 0 to 100 (0 no effect, 100 complete control), read-out: Plant response rating, Velvetleaf)
100%: pest or weed control at 125 g/ha (large (Lg) crabgrass [1]; [10]) | pest or weed control at 500 g/ha (large (Lg) crabgrass [1]; 500 g ai/ha, 0 to 100 scale, 0 no effect, 100 complete control, approx. 10 days, read-out: Crabgrass, Large plant response rating) | pest or weed control at 125 g/ha (pigweed [2]; [11]) | pest or weed control at 500 g/ha (pigweed [2]; 240 h, 500 g ai/ha, 0 to 100 scale, 0 no effect, 100 complete control, approx. 10 days, read-out: Pigweed plant response rating) | pest or weed control at 125 g/ha (large (Lg) crabgrass [3]; [10]) | pest or weed control at 500 g/ha (large (Lg) crabgrass [3]; 500 g ai/ha, 0 to 100 scale, 0 no effect, 100 complete control, read-out: Plant response rating Crabgrass, Large) | pest or weed control at 125 g/ha (giant foxtail [4]; 125 g ai/ha, 0 to 100 scale where 0 is no effect and 100 is complete control, read-out: Plant response rating, Foxtail, Giant) | pest or weed control at 500 g/ha (giant foxtail [4]; 500 g ai/ha, 0 to 100 scale, 0 no effect, 100 complete control, read-out: Plant response rating Foxtail, Giant) | pest or weed control at 125 g/ha (pigweed [5]; [11]) | pest or weed control at 500 g/ha (pigweed [5]; 240 h, 500 g ai/ha, 0 to 100 scale, 0 no effect, 100 complete control, read-out: Plant response rating Pigweed) | pest or weed control at 62 g/ha (giant foxtail [6]; 62 g ai/ha, preemergence, scale 0 (no effect) to 100 (complete control), read-out: Foxtail, Giant plant response rating) | pest or weed control at 125 g/ha (giant foxtail [6]; 125 g ai/ha, preemergence, scale 0 (no effect) to 100 (complete control), read-out: Foxtail, Giant plant response rating) | pest or weed control at 250 g/ha (giant foxtail [6]; 250 g ai/ha, preemergence, scale 0 (no effect) to 100 (complete control), read-out: Foxtail, Giant plant response rating) | pest or weed control at 31 g/ha (giant foxtail [6]; Preemergence, 31 g ai/ha, scale 0 to 100, 0 no effect, 100 complete control, read-out: Plant response rating, Foxtail, Giant) | pest or weed control at 62 g/ha (johnsongrass [7]; 62 g ai/ha, preemergence, scale 0 (no effect) to 100 (complete control), read-out: Johnsongrass plant response rating) | pest or weed control at 125 g/ha (johnsongrass [7]; 125 g ai/ha, preemergence, scale 0 (no effect) to 100 (complete control), read-out: Johnsongrass plant response rating) | pest or weed control at 250 g/ha (johnsongrass [7]; 250 g ai/ha, preemergence, scale 0 (no effect) to 100 (complete control), read-out: Johnsongrass plant response rating) | pest or weed control at 62 g/ha (ragweed; 62 g ai/ha, preemergence, scale 0 (no effect) to 100 (complete control), read-out: Ragweed plant response rating) | pest or weed control at 125 g/ha (ragweed; 125 g ai/ha, preemergence, scale 0 (no effect) to 100 (complete control), read-out: Ragweed plant response rating) | pest or weed control at 250 g/ha (ragweed; 250 g ai/ha, preemergence, scale 0 (no effect) to 100 (complete control), read-out: Ragweed plant response rating) | pest or weed control at 250 g/ha (waterhemp; 250 g ai/ha, postemergence, read-out: Plant response rating (0 to 100), Waterhemp)
20%: pest or weed control at 62 g/ha (large (Lg) crabgrass [8]; Postemergence, 62 g ai/ha, scale 0 to 100 (0 no effect, 100 complete control), read-out: Plant response rating, Crabgrass, Large)
15%: Corn plant response rating (crop injury, 0 = no effect, 100 = complete kill) at 62 g/ha (corn; Postemergence, 62 g ai/ha, scale 0 to 100 (0 no effect, 100 complete control)) | pest or weed control at 31 g/ha (johnsongrass [9]; Postemergence, 31 g ai/ha, scale 0 to 100 (0 no effect, 100 complete control), 13 to 15 days, read-out: Plant response rating, Johnsongrass) | pest or weed control at 62 g/ha (johnsongrass [9]; Postemergence, 62 g ai/ha, scale 0 to 100 (0 no effect, 100 complete control), read-out: Plant response rating, Johnsongrass)
60%: plant injury at 31 g/ha (oilseed rape; Postemergence, 31 g ai/ha, scale 0 to 100 (0 no effect, 100 complete control), 13 to 15 days, read-out: Plant response rating, Oilseed Rape) | pest or weed control at 125 g/ha (velvetleaf; 125 g ai/ha, postemergence, read-out: Plant response rating (0 to 100), Velvetleaf)
10%: Corn plant response rating (crop injury, 0 = no effect, 100 = complete kill) at 31 g/ha (corn; Postemergence, 31 g ai/ha, scale 0 to 100 (0 no effect, 100 complete control), 13 to 15 days)
90%: pest or weed control at 62 g/ha (blackgrass; 62 g ai/ha, preemergence, scale 0 (no effect) to 100 (complete control), read-out: Blackgrass plant response rating) | pest or weed control at 125 g/ha (blackgrass; 125 g ai/ha, preemergence, scale 0 (no effect) to 100 (complete control), read-out: Blackgrass plant response rating) | pest or weed control at 250 g/ha (blackgrass; 250 g ai/ha, preemergence, scale 0 (no effect) to 100 (complete control), read-out: Blackgrass plant response rating) | pest or weed control at 31 g/ha (blackgrass; Preemergence, 31 g ai/ha, scale 0 to 100, 0 no effect, 100 complete control, read-out: Plant response rating, Blackgrass) | pest or weed control at 125 g/ha (waterhemp; 125 g ai/ha, postemergence, read-out: Plant response rating (0 to 100), Waterhemp) | pest or weed control at 62 g/ha (waterhemp; Postemergence, 62 g ai/ha, scale 0 to 100 (0 no effect, 100 complete control), read-out: Plant response rating, Waterhemp)
25%: plant injury at 125 g/ha (corn; 125 g ai/ha, postemergence, read-out: Plant response rating (0 to 100), Corn)
5%: pest or weed control at 31 g/ha (large (Lg) crabgrass [8]; Postemergence, 31 g ai/ha, scale 0 to 100 (0 no effect, 100 complete control), 13 to 15 days, read-out: Plant response rating, Crabgrass, Large)
85%: pest or weed control at 31 g/ha (johnsongrass [7]; Preemergence, 31 g ai/ha, scale 0 to 100, 0 no effect, 100 complete control, read-out: Plant response rating, Johnsongrass) | pest or weed control at 31 g/ha (ragweed; Preemergence, 31 g ai/ha, scale 0 to 100, 0 no effect, 100 complete control, read-out: Plant response rating, Ragweed) | pest or weed control at 250 g/ha (large (Lg) crabgrass [8]; 250 g ai/ha, postemergence, read-out: Plant response rating (0 to 100), Crabgrass, Large) | pest or weed control at 250 g/ha (johnsongrass [9]; 250 g ai/ha, postemergence, read-out: Plant response rating (0 to 100), Johnsongrass) | plant injury at 125 g/ha (oilseed rape; 125 g ai/ha, postemergence, read-out: Plant response rating (0 to 100), Oilseed Rape) | plant injury at 250 g/ha (oilseed rape; 250 g ai/ha, postemergence, read-out: Plant response rating (0 to 100), Oilseed Rape) | pest or weed control at 31 g/ha (waterhemp; Postemergence, 31 g ai/ha, scale 0 to 100 (0 no effect, 100 complete control), 13 to 15 days, read-out: Plant response rating, Waterhemp) | pest or weed control at 250 g/ha (velvetleaf; 250 g ai/ha, postemergence, read-out: Plant response rating (0 to 100), Velvetleaf)
